Values quoted from earlier work as cited in US20210268271A1, “SYSTEMS AND METHODS FOR VISCERAL NEUROMODULATION” (priority 2018, published 2021).

What was measured:
[1] = test system: sympathetic ganglia
[2] = test system: TRPV1 expressing cardiac nerve endings; settings: in vivo
[3] = test system: deep cardiac plexus

Compound | duration of block [3] | also measured
C[C@H](CCCC(C)(C)O)[C@H]1CC[C@H]2[C@@H]3CC=C4C[C@@H](O)CC[C@]4(C)[C@H]3CC[C@]12C [25-OH-cholesterol] |  | relative potency among cholesterol oxides [1]: most potent
C=C(C)[C@]12C[C@@H](C)[C@@]34O[C@](Cc5ccccc5)(O[C@@H]1[C@@H]3C=C(COC(=O)Cc1ccc(O)c(OC)c1)C[C@]1(O)C(=O)C(C)=C[C@@H]41)O2 [RTX, resiniferatoxin] |  | duration of complete ablation of TRPV1 expressing cardiac nerve endings [2]: over 10 weeks
CCCCN1CCCCC1C(=O)Nc1c(C)cccc1C (stereo not shown) [bupivacaine] | approximately 2 hours | 
CCN(CC)CC(=O)Nc1c(C)cccc1C [lidocaine] | approximately 2 hours | 
